Measurements from publication PMC9408887 (International Journal of Molecular Sciences, 2022).
Read-outs that look alike come from different tables or passages of the source.

How the values were obtained:
Bla2 [1] = biological target: T1, Bla2 (Bacillus anthracis, UniProt Q93T40); assay type: biochemical
Bla2 [2] = biological target: T1, Bla2; experiment: biochemical; assay type: biochemical
Bla2 [3] = settings: cited from earlier work

T1 sequence (Q93T40 1-256): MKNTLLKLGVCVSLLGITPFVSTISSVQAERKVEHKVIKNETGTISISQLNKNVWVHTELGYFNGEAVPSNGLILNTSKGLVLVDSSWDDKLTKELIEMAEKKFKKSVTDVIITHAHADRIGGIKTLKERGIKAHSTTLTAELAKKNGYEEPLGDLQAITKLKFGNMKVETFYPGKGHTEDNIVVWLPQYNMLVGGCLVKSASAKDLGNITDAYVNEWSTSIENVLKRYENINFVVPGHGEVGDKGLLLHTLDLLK

Compound | Ki (Bla2 [1]) [µM] | mode of inhibition (Bla2 [1]) | Ki (Bla2 [1]; pH 7) [µM] | IC50 (Bla2 [2]; pH 7, read-out: IC50) [µM] | inhibition (Bla2 [3]) | IC50 (Bla2 [2]) [µM]
N-hydroxy-4-(7-(hydroxyamino)-7-oxoheptyl)-3-methoxybenzamide [Compound 6] | 4.7 ± 1.4 | competitive inhibition | 4.7 ± 1.4 | 14.9 ± 9.8 |  | 
3-chloro-N-hydroxy-4-(7-(hydroxyamino)-7-oxoheptyl)benzamide [Compound 4] | 6.4 ± 1.7 | competitive inhibition | 6.4 ± 1.7 | 20 ± 5 |  | 
CCCCCCCOc1cccc(C(=O)NO)c1 [3-(heptyloxy)-N-hydroxybenzamide] |  |  |  |  | no inhibition | 
O=C(CCCCCOc1cccc(C(=O)NO)c1)NO [N-hydroxy-3-((6-(hydroxyamino)-6-oxohexyl)oxy)benzamide] |  |  |  |  | significant inhibition | 
O=C(CCCCCCC(=O)Nc1ccccc1)NO [SAHA, suberoylanilide hydroxamic acid, reference compound] |  |  |  |  |  | > 100
